{"source": "patent US12612392B2", "about": "“Compound, pharmaceutical compositions containing same, synthesis method therefor and use thereof” (SHENZHEN ZHONGGE BIOLOGICAL TECHNOLOGY CO., LTD., priority 2022, dated 2026)", "key": {"[1]": {"biological_target": "T1, CYP2C9 (Homo sapiens, UniProt P11712)", "T1 construct": "A phosphate buffer solution of liver microsomes was prepared; from tissue; host or cells: human liver microsomes", "T1 sequence (P11712 whole entry)": "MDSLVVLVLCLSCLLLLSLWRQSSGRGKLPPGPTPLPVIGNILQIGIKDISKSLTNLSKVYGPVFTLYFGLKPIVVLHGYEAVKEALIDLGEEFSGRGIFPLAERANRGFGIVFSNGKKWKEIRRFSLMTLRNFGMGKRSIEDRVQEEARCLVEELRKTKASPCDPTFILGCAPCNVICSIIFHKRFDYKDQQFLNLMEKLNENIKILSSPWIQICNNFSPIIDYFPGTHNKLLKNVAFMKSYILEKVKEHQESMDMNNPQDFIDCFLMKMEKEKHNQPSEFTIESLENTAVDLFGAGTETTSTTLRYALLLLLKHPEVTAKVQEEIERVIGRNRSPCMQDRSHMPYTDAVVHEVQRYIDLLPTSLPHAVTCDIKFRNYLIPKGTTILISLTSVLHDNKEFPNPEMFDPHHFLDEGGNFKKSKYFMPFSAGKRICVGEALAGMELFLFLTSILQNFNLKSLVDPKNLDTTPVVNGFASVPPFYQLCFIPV", "test": "P450 enzyme inhibition, CYP2C9", "assay_type": "in vitro ADME", "conditions": "human liver microsome, substrate Diclofenac sodium", "protocol": "(§1) A phosphate buffer solution of liver microsomes was prepared. 169 μL of the phosphate buffer solution of liver microsomes and 1 μL of working solutions of various concentrations of test compounds or positive control compounds were added to a 96-well plate. The culture plate was placed in a water bath and pre-heated at 37° C. for 15 minutes. After the incubation, 10 μL of substrates were added to the culture plate (1 μL of substrates and 9 μL of the K-Mg buffer solution were added to the plate for CYP3A4-T). The incubation mixture was mixed on a rotating mixer for 10 seconds, and then 20 μL of a 10 mM NADPH solution was added to start the reaction at a final concentration of 1 mM. The experiment was repeated twice. At the predetermined time points listed in Table 4, the reaction was quenched by adding 400 μL of the quenching solution (cold ACN containing 500 nM mephetedrine and 10 nM terfenadine). Centrifugation was performed at 3220 g for 50 minutes at 4° C. 100 μl of the supernatant was transferred to a new plate. The supernatant was diluted with 100 μL of pure water. The mixture was mixed evenly, and the sample was analyzed by UPLC-MS/MS."}, "[2]": {"tested_on": "HEK293T/17-ATF4 uORF-Luc-Puro monoclonal cells", "test": "Cell activity test: ATF4 luciferase reporter, thapsigargin-induced stress", "assay_type": "cell-based", "conditions": "Homo sapiens, HEK-293T; ATF4 reporter expression, 50 nM thapsigargin, 6 hours", "from_the_text": "The ATF4 luciferase reporter plasmid consists of two parts, i.e., the 5′ untranslated region sequence of the ATF4 gene and the luciferase coding sequence. Specifically, the ATF4 5′ untranslated region sequence (NCBI database number BC022088.2) containing two upstream open reading frames (uORFs), and the firefly luciferase encoding gene were cloned into the pLVX-Puro vector (YouBio, VT1465). The lentivirus packaging plasmids were psPAX2 (YouBio, VT1444) and pMD2.G (YouBio, VT1443). HEK293T/17 cells were transfected with the above three plasmids simultaneously using X-tremeGENE 9 DNA transfection reagent, and after 48 hours, a culture medium containing lentivirus was collected. HEK293T/17 cells transduced with the virus were screened with 1 μg/mL puromycin, and then monoclonal cells were obtained by limiting dilution.\nBy using this cell line and the cold fluorescence readings, the translational regulation of ATF4 can be detected, and the activity of the eIF2B activator can be tested. The specific experimental process is as follows: 6000 HEK293T/17-ATF4 uORF-Luc-Puro monoclonal cells were plated in a 384-well plate and allowed to adhere overnight. The test compounds were dissolved in DMSO and added together with 50 nM thapsigargin to the cell culture medium and incubated for 6 hours, wherein the thapsigargin was used to cause cellular stress and upregulate the protein translation of ATF4. Six hours after the addition, the cells were lysed using the One-Glo Luciferase Assay Kit (Promega #E6120), and then the cold fluorescence values were read using the LUM program of the EnVision 2104 plate reader.\nThe ATF4 reporter expression % was calculated as follows:\n[formula] • ave_vc: average signal value of negative control • ave_pc: average signal value of positive control • ave_sample: average signal value of sample\nThe dose-response curves were fitted, and the EC50 values were calculated.\nThe nonlinear regression log (inhibitor) vs. response—variable slope (four parameters) method of GraphPad 9 software was used to fit the corresponding relationship between the ATF4 reporter expression % and the compound concentration.\nX-axis: log value of compound concentration; Y-axis: ATF4 reporter expression %; Top: evaluation of upper asymptote of curve; Bottom: evaluation of lower asymptote of curve; Hillslope: slope of the fitted curve."}, "[3]": {"test": "Cell membrane permeability (A to B / B to A, efflux ratio)", "assay_type": "in vitro ADME", "protocol": "The test compounds were diluted from 10 mM stock solutions to a concentration of 10 μM using the transport buffer (HBSS+BSA) and applied to the apical or basolateral side of the cell monolayer. After the incubation at 37° C., 5% CO2 and 95% relative humidity for 120 minutes, the permeability of the test compounds in the A to B direction or the B to A direction was tested in duplicate. In addition, the efflux ratio of each compound was determined. The test substances and reference substances were quantitatively analyzed by the LC-MS/MS method based on the analyte/IS peak area ratio."}, "[4]": {"biological_target": "T2, CYP3A4 (Homo sapiens, UniProt P08684)", "T2 construct": "A phosphate buffer solution of liver microsomes was prepared; from tissue; host or cells: human liver microsomes", "T2 sequence (P08684 whole entry)": "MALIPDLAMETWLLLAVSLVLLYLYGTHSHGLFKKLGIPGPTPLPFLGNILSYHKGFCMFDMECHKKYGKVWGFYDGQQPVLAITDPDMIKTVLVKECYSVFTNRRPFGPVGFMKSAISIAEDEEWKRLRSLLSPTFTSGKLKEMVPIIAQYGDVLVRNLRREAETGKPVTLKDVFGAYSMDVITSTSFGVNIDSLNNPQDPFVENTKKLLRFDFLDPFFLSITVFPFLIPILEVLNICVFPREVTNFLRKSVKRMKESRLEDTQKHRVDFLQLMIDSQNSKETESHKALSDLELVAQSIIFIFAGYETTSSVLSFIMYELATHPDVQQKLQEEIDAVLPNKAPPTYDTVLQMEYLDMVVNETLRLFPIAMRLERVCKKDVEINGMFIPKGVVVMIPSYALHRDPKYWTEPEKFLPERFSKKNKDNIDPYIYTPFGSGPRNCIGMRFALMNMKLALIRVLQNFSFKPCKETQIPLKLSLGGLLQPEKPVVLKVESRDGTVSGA", "test": "P450 enzyme inhibition, CYP3A4", "assay_type": "in vitro ADME", "conditions": "human liver microsome, substrate Testosterone", "protocol": "as §1"}}, "note": "pEC50, pIC50: −log10 of the molar value.", "data": [{"smiles": "O=C(COc1ccc(Cl)c(F)c1)N[C@H]1CC[C@H](c2nnc(N3CC(OC(F)(F)F)C3)o2)CC1", "note": "[Compound 6]", "values": [{"measurement": "pIC50", "setting": "[1]", "value": "< 5.00"}, {"measurement": "pEC50", "setting": "[2]", "value": "> 9.00"}, {"measurement": "efflux ratio at 120 min, 10 µM", "setting": "[3]", "value": 0.71}, {"measurement": "Papp A→B at 120 min, 10 µM", "setting": "[3]; 37° C.", "value": 25.8, "unit": "×10⁻⁶ cm/s"}, {"measurement": "Papp B→A at 120 min, 10 µM", "setting": "[3]; 37° C.", "value": 18.4, "unit": "×10⁻⁶ cm/s"}, {"measurement": "pIC50", "setting": "[4]", "value": "< 4.52"}]}]}
